Data set [1] is described as follows: Anti-convulsant activity (Swinyard). It counts as in vivo, mice (ddY male). Also noted: key: 9: Anticonvulsant activity was observed in all three mice.; 1: No anticonvulsant activity was observed in all three mice. The conditions noted are these: 100 mg/kg p.o.; 2 hours after administration; three mice. As for the experimental part: Three ddY male mice weighing 20-24 g were employed in each group. Test compounds suspended in a 0.5% tragacanth solution were orally administered to mice at a dose of 100mg/kg in an amount of 0.1 ml/10 g body weight. The same amount of 0.5% tragacanth solution was orally administered to control group. Two hours after the administration of the test compounds, the anti-convulsant activity was measured in accordance with the procedure by Swinyard (Mercier, J., Ed., "Anticonvulsant Drugs", P. 47-65, Pargamon Press, New York, 1973).

In data set [2] the test system is lipid peroxidation of brain mitochondria. The experiment in a line: Inhibitory effect on lipid peroxidation of brain mitochondria (thiobarbituric acid method). The format is biochemical. The following applies: rat brain mitochondria; 37° C., 30 minutes; Fe++ 25 μM, ascorbic acid 50 μM. Here is the method:
This test was conducted in accordance with the procedures by Kubo et al. [Arch. int. Pharmacodyn., 272, 283 (1984)]. Brain mitochondria of rat were incubated in 25 mM Tris-HCl buffer solution at 37° C. for 30 minutes in the presence of Fe^++ ion (25 μM) and ascorbic acid (50 μM), and the produced peroxidized lipid was measured by the thiobarbituric acid method.

Data set [3] is described as follows: Prolonging effect of the persistent time of gasping movements in complete ischemia (decapitation). It counts as in vivo, mice (ddY male). The conditions noted are these: for minimal effective dose: Mus musculus, po, 2 hours after administration, mice; for activity in prolonging gasping movements, in words: p.o., compared with flunarizine hydrochloride / compounds of the invention. Here is the method: Test was conducted in accordance with the procedure by Wauquier et al. [Japan J. Pharmacol., 38, 1 (1985)], employing five ddY male mice weighing 20-24 g in each group. Test compounds were suspended in 0.5% tragacanth solution and then a fixed amount of the suspension was orally administered to mice in an amount of 0.1 ml/10 g body weight, while the same amount of 0.5% tragacanth solution was orally administered to control group. Two hours after the administration of the test compounds, the necks of mice were cut with scissors for decapitation. The persistent of gasping movements of isolated heads was measured and minimal effective dose was determined by statistically comparing with the data in control group.

Data set [4] is described as follows: Prolonging effect on the time to death by hypoxia (anoxia) in mice. The format is in vivo, mice (STD-ddY male). The conditions noted are these: p.o.; compared with flunarizine hydrochloride. As for the experimental part: Five STD-ddY male mice (weighing 20-24 g) were employed in each group. A fixed amount of test compounds was suspended in 0.5% tragacanth solution and the suspension was orally administered to mice in an amount of 0.1 ml/10 g body weight. Two hours after the administration, each mouse was taken in a 2.5 liter plastic chamber and a mixed gas comprising 4% oxygen and 96% nitrogen was passed through the chamber at a rate of 4 liter/min. There was measured the time till the death (respiratory cessation) of mice. To control group, a 0.5% tragacanth solution without test compound was orally administered.

Another data set can be described thus: Acute toxicity. The format is in vivo, mice (ddY male). The conditions noted are these: 500 mg/kg p.o.; seven days observation; five mice. As for the experimental part: Five ddY male mice weighing 20-24 g were employed in each group. The compound 1 of the present invention suspended in a 0.5% tragacanth solution was orally administered to mice at a dose of 500 mg/kg in an amount of 0.1 ml/10 g body weight. After the administration, the occurrence of death has been observed for seven days.

SMILES strings stand for the structures. Where a name gives a salt, the structure may show the parent alone.

For orientation: IC50 means the concentration needed to halve the response being measured. For orientation: minimal effective dose means the lowest level tested that produced the effect sought.

Take `COc1cccc(C=CCN2CCN(C3c4ccccc4COc4cc(F)ccc43)CC2)c1` (stereo not shown) [A, 11-? 4-(3,-methoxycinnamyl)-1-piperazinyl-3-fluoro-6-11dihydrodibenz[b,e]oxepin, reference compound]: the “Score, anti-convulsant activity” value in data set [1] worked out at 1. In data set [2], this molecule had an IC50 above 150 µM. Besides, in data set [3], the minimal effective dose is above 100 mg/kg and the “activity in prolonging gasping movements, in words” value is “lower activities”.

Take `Fc1ccc(C(c2ccc(F)cc2)N2CCN(C/C=C/c3ccccc3)CC2)cc1` [Flunarizine hydrochloride, reference compound]: the “Score, anti-convulsant activity” value in data set [1] amounted to 9. The molecule further registered a minimal effective dose in data set [3] of 30 mg/kg.

`Fc1ccc2c(c1)OCc1c(F)cccc1C2N1CCN(C/C=C/c2ccccc2)CC1` (stereo not shown) [Compound 5]: the minimal effective dose in data set [3] was found to be 3 mg/kg.

`COc1ccc2c(c1)C(N1CCN(C/C=C/c3ccccc3)CC1)c1ccccc1CO2` (stereo not shown) [Compound 2, 11-(4-cinnamyl-1-piperazinyl)-2-methoxy-6,11-dihydrodibenz[b,e]oxepin] showed a minimal effective dose in data set [3] of 3 mg/kg. Also, the “prolonging effect under hypoxic condition, in words” value in data set [4] is on record as “clearly more excellent than that o flunarizine hydrochloride”.

On to `Cc1ccc2c(c1)OCc1ccccc1C2N1CCN(C/C=C/c2ccccc2)CC1` (stereo not shown) [B, 11-(4-cinnamyl-1-piperazinyl)-3-methyl-6,11-dihydrodibenz[b,e]oxepin, reference compound], for which the “Score, anti-convulsant activity” value in data set [1] was 1. The IC50 in data set [2] was above 150 µM. In addition, in data set [3], the minimal effective dose was above 100 mg/kg and the “activity in prolonging gasping movements, in words” value is “lower activities”.

With `Oc1ccc2c(c1)C(N1CCN(C/C=C/c3ccccc3)CC1)c1ccccc1CO2` (stereo not shown) [Compound 3, 11-(4-cinnamyl-1-piperazinyl)-2-hydroxy-6,11-dihydrodibenz[b,e]oxepin], 12.3 µM corresponded to half-maximal inhibition in data set [2] (IC50). For the same molecule, the minimal effective dose in data set [3] stood at 30 mg/kg.

With `Fc1ccc2c(c1)OCc1ccc(F)cc1C2N1CCN(C/C=C/c2ccccc2)CC1` (stereo not shown) [Compound 6], in data set [3], the minimal effective dose was found to be 10 mg/kg.

In the case of `Fc1ccc2c(c1)C(N1CCN(CC=Cc3cccs3)CC1)c1ccccc1CO2` (stereo not shown) [Compound 8], the minimal effective dose in data set [3] came out at 30 mg/kg.

On to `Fc1ccc2c(c1)OCc1ccccc1C2N1CCN(C/C=C/c2ccccc2)CC1` (stereo not shown) [Compound 1, 11-(4-cinnamyl-1-piperazinyl)-3-fluoro-6,11-dihydrodibenz[b,e]oxepin], for which the “Score, anti-convulsant activity” value in data set [1] is recorded as 9. Moreover, in data set [2], the IC50 was 7.8 µM. In addition, the occurrence of death result in the data set “Acute toxicity” was “no death”. In addition, the minimal effective dose in data set [3] amounted to 10 mg/kg. Moreover, in data set [4], the “prolonging effect under hypoxic condition, in words” value is given as “clearly more excellent than that o flunarizine hydrochloride”.

`Fc1ccc2c(c1)COc1ccc(F)cc1C2N1CCN(C/C=C/c2ccccc2)CC1` (stereo not shown) [Compound 4]: the “Score, anti-convulsant activity” value in data set [1] is listed as 9. For the same molecule, the minimal effective dose in data set [3] was determined as 30 mg/kg.

On to `COc1ccc(OC)c2c1OCc1ccccc1C2N1CCN(C/C=C/c2ccccc2)CC1` (stereo not shown) [Compound 7], for which the minimal effective dose in data set [3] was 30 mg/kg.

The values above are taken from patent US4889858A, “Dibenz[b,e]oxepin derivatives and pharmaceutical composition containing the same” (Dainippon Pharmaceutical Co., Ltd., priority 1986, dated 1989).
